According to patent US6686382B2, “Sulfonamides and derivatives thereof that modulate the activity of endothelin” (Encysive Pharmaceuticals Inc., priority 1999, dated 2004):
Where a name gives a salt, the structure may show the parent alone.

Tests used:
human ETA receptors = biological target: T1, human ETA receptors (Homo sapiens, UniProt P25101); test: Endothelin binding inhibition, Binding Test #1: inhibition of binding to ETA receptors (TE 671 cell membranes); conditions: relative to N-(4-chloro-3-methyl-5-isoxazolyl)-2-{[3,4-(methylenedioxy)-6-methylphenyl)acetyl]-thiophene-3-sulfonamide (= 1.0)
T1 construct: endogenous in cells; host or cells: TE 671 cells (ATCC HTB 139), membrane preparation
T1 sequence (P25101 21-427): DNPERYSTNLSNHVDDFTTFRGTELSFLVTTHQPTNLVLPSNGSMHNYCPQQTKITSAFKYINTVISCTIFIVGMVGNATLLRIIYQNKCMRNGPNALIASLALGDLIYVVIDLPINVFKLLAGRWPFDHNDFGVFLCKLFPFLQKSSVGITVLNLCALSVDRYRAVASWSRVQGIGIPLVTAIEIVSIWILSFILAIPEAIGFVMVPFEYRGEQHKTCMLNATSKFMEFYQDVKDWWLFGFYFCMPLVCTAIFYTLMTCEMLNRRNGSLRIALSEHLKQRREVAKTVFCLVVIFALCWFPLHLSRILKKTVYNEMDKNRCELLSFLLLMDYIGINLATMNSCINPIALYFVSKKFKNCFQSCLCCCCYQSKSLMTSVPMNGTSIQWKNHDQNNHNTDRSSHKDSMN
From the text: Compounds that are potential endothelin antagonists are identified by testing their ability to compete with ^125I-labeled ET-1 for binding to human ETA receptors or ETB receptors present on isolated cell membranes. The effectiveness of the test compound as an antagonist or agonist of the biological tissue response of endothelin can also be assessed by measuring the effect on endothelin induced contraction of isolated rat thoracic aortic rings. The ability of the compounds to act as antagonists or agonists for ETB receptors can be assess by testing the ability of the compounds are to inhibit endothelin-1 induced prostacyclin release from cultured bovine aortic endothelial cells.
A. Endothelin Binding Inhibition—Binding Test #1: Inhibition of Binding to ETA Receptors
TE 671 cells (ATCC Accession No. HTB 139) express ETA receptors. These cells were grown to confluence in T-175 flasks. Cells from multiple flasks were collected by scraping, pooled and centrifugedfor 10 min at 190×g. The cells were resuspended in phosphate buffered saline (PBS) containing 10 mM EDTA using a Tenbroeck homogenizer. The suspension was centrifuged at 4° C. at 57,800×g for 15 min, the pellet was resuspended in 5 ml of buffer A (5 mM HEPES buffer, pH 7.4 containing aprotinin (100 KIU/ml)) and then frozen and thawed once. 5 ml of Buffer B (5 mM HEPES Buffer, pH 7.4 containing 10 mM MnCl2 and 0.001% deoxyribonuclease Type 1) was added, the suspension mixed by inversion and then incubated at 37° C. for 30 minutes. The mixture was centrifuged at 57,800×g as described above, the pellet washed twice with buffer A and then resuspended in buffer C (30 mM HEPES buffer, pH 7.4 containing aprotinin (100 KIU/ml) to give a final protein concentration of 2 mg/ml and stored at −70° C. until use.
The membrane suspension was diluted with binding buffer (30 mM HEPES buffer, pH 7.4 containing 150 mM NaCl, 5 mM MgCl2, 0.5% Bacitracin) to a concentration of 8 μg/50 μl. ^125I-endothelin-1 (3,000 cpm, […]) was added to 50 μL of either: (A) endothelin-1 (for non specific binding) to give a final concentration 80 nM); (B) binding buffer (for total binding); or (C) a test compound (final concentration 1 nM to 100 μM). The membrane suspension (50 μL), containing up to 8 μg of membrane protein, was added to each of (A), (B), or (C). Mixtures were shaken, and incubated at 4° C. for 16-18 hours, and then centrifuged at 4° C. for 25 min at 2,500×g. Alternatively, the incubation was conducted at 24° C. […] This, must be kept in mind when comparing IC50 concentrations among compounds provided herein.
The supernatant, containing unbound radioactivity, was decanted and the pellet counted on a Genesys multiwell gamma counter. The degree of inhibition of binding (D) was calculated according to the following equation: [formula]
Each test was generally performed in triplicate.

| SMILES | ETA ACTIVITY (ETA antagonist activity relative to reference compound) (human ETA receptors) | melting point |
| --- | --- | --- |
| CCCc1c(O)c(C(C)=O)cc(C(C)=O)c1NC(=O)c1sccc1S(=O)(=O)Nc1onc(C)c1Cl [Compound 36] | 0.1 | 163 to 167 °C |
| Cc1cc(-c2ncco2)cc(C)c1NC(=O)c1sccc1S(=O)(=O)Nc1onc(C)c1Cl [Compound 52, 3-{[(4-chloro-3-methyl-5-isoxazolyl)amino]sulfonyl}-N-[2,6-dimethyl-4-(1,3-oxazol-2-yl)phenyl]-2-thiophenecarboxamide] | 1.1 | 205 to 207 °C |
| CO/N=C(\C)c1cc(C)cc(C)c1NC(=O)c1sccc1S(=O)(=O)Nc1onc(C)c1Cl [Compound 22, 3-{[(4-chloro-3-methyl-5-isoxazolyl)amino]sulfonyl}-N-{2,4-dimethyl-6-[(methyloxy)ethanimidoyl]phenyl}-2-thiophene carboxamide] | 23.6 | 140 to 145 °C |
| Cc1nc(C)c(NC(=O)c2sccc2S(=O)(=O)Nc2onc(C)c2Cl)c(C)n1 [Compound 28, 3-{[(4-chloro-3-methyl-5-isoxazolyl)amino]sulfonyl}-N-(2,4,6-trimethyl-5-pyrimidinyl)-2-thiophenecarboxamide] | 2.0 | 170 to 175 °C |
| CC(=O)c1c(C)c(C)cc(C)c1NC(=O)c1sccc1S(=O)(=O)Nc1onc(C)c1Cl [Compound 30, N-(2-acetyl-3,4,6-trimethylphenyl)-3-{[(4-chloro-3-methyl-5-isoxazolyl)amino]sulfonyl}-2-thiophenecarboxamide] | 103.8 | 223 to 225 °C |
| Cc1cc(C)c(NC(=O)c2sccc2S(=O)(=O)Nc2onc(C)c2Cl)c(C#N)c1C [Compound 32, 3-{[(4-chloro-3-methyl-5-isoxazolyl)amino]sulfonyl}-N-(2-cyano-3,4,6-trimethylphenyl)-2-thiophenecarboxamide] | 55.7 |  |
| CC(=O)c1cc2c(cc1NC(=O)c1sccc1S(=O)(=O)Nc1onc(C)c1Cl)OCO2 [3-{[(4-chloro-3-methyl-5-isoxazolyl)amino]sulfonyl}-N-(2-acetyl-4,5-methylenedioxyphenyl)-2-thiophenecarboxamide] | 0.15 |  |
| CC(=O)c1cc2c(cc1NC(=O)c1sccc1S(=O)(=O)Nc1onc(C)c1C)OCO2 [3-{[(3,4-dimethyl-5-isoxazolyl)amino]sulfonyl}-N-(2-acetyl-4,5-methylenedioxyphenyl)-2-thiophenecarboxamide] | 0.05 |  |
| Cc1cc(C)c(NC(=O)c2sccc2S(=O)(=O)Nc2onc(C)c2Cl)c(C(=O)O)c1 [3-{[(4-chloro-3-methyl-5-isoxazolyl)amino]sulfonyl}-N-(2-carboxyl-4,6-dimethylphenyl)-2-thiophenecarboxamide] | 0.05 |  |
| Cc1cc(C)c(NC(=O)c2sccc2S(=O)(=O)Nc2onc(C)c2Cl)c(C(=O)N(C)CC(C)(C)C)c1 [Compound 40, 3-{[(4-chloro-3-methyl-5-isoxazolyl)amino]sulfonyl}-N-(2,4-dimethyl-6-{[methyl(2,2-dimethylpropyl)amino]carbonyl}phenyl)-2-thiophenecarboxamide] | 2.7 | 174 to 176 °C |
| Cc1cc(C)c(NC(=O)c2sccc2S(=O)(=O)Nc2onc(C)c2Cl)c(C(=O)N(C)C)c1 [Compound 20, 3-{[(4-chloro-3-methyl-5-isoxazolyl)amino]sulfonyl}-N-{2-[(dimethylamino)carbonyl]-4,6-dimethylphenyl)-2-thiophene carboxamide] | 14.4 |  |
| Cc1cc(C)c(NC(=O)c2sccc2S(=O)(=O)Nc2onc(C)c2Cl)c(C(C)O)c1 (stereo not drawn) [Compound 18, 3-{[(4-chloro-3-methyl-5-isoxazolyl)amino]sulfonyl}-N-[2-(1-hydroxyethyl)-4,6-dimethylphenyl]-2-thiophene carboxamide] | 26.4 |  |
| Cc1cc(C)c(NC(=O)c2sccc2S(=O)(=O)Nc2onc(C)c2Cl)c(C)c1 [3-{[(4-chloro-3-methyl-5-isoxazolyl)amino]sulfonyl}-N-(2,4,6-trimethylphenyl)-2-thiophenecarboxamide] | 2.4 |  |
| CCc1cc(C)cc(C)c1NC(=O)c1sccc1S(=O)(=O)Nc1onc(C)c1Cl [Compound 50, 3-{[(4-chloro-3-methyl-5-isoxazolyl)amino]sulfonyl}-N-(2-ethyl-4,6-dimethylphenyl)-2-thiophenecarboxamide] | 3.8 | 152 to 154 °C |
| Cc1cc(C)c(NC(=O)c2sccc2S(=O)(=O)Nc2onc(C)c2Cl)c(C(C)O)c1 (stereo not drawn) (as salt: Na) [Compound 18, 3-{[(4-chloro-3-methyl-5-isoxazolyl)amino]sulfonyl}-N-[2-(1-hydroxyethyl)-4,6-dimethylphenyl]-2-thiophene carboxamide] |  | 147 to 154 °C |
| Cc1cc(C)c(OCC2CC2)c(C)c1NC(=O)c1sccc1S(=O)(=O)Nc1onc(C)c1Cl [Compound 26, 3-{[(4-chloro-3-methyl-5-isoxazolyl)amino]sulfonyl}-N-{3-[(cyclopropylmethyl)oxy]-2,4,6-trimethylphenyl}-2-thiophenecarboxamide] | 9.4 | 155 to 158 °C |
| COC(=O)c1c(C)cc(C)c(NC(=O)c2sccc2S(=O)(=O)Nc2onc(C)c2Cl)c1C [3-{[(4-chloro-3-methyl-5-isoxazolyl)amino]sulfonyl}-N-(3-methoxycarbonyl-2,4,6-trimethylphenyl)-2-thiophenecarboxamide] | 4.7 |  |
| CCCS(=O)(=O)c1cc(C)cc(C)c1NC(=O)c1sccc1S(=O)(=O)Nc1onc(C)c1Cl [Compound 48, 3-{[(4-chloro-3-methyl-5-isoxazolyl)amino]sulfonyl)-N-[2,4-dimethyl-6-(propylsulfonyl)phenyl]-2-thiophenecarboxamide] |  | 152 to 155 °C |
| Cc1cc(C)c(OS(=O)(=O)N(C)C)c(C)c1NC(=O)c1sccc1S(=O)(=O)Nc1onc(C)c1Cl [Compound 24, 3-{[(3-{[(4-chloro-3-methyl-5-isoxazolyl)amino]sulfonyl}-2-thiophenyl)carbonyl]amino}-2,4,6-trimethylphenyl-N,N-dimethylsulfamate] |  | 169 to 174 °C |
| Cc1cc(C)c(CC(=O)c2sccc2S(=O)(=O)Nc2onc(C)c2Cl)c(C)c1 [3-{[(4-chloro-3-methyl-5-isoxazolyl)amino]sulfonyl}-2-(2,4,6-trimethylphenylacetyl)thiophene] | 6.4 |  |
| Cc1cc(C)c(NC(=O)c2sccc2S(=O)(=O)Nc2onc(C)c2Cl)c(C(N)=O)c1 [3-{[(4-chloro-3-methyl-5-isoxazolyl)amino]sulfonyl}-N-(2-carbamoyl-4,6-dimethylphenyl)-2-thiophenecarboxamide] | 1.04 |  |
| Cc1cc(C)c(NC(=O)c2sccc2S(=O)(=O)Nc2onc(C)c2C)c(C#N)c1C [Compound 9, N-(2-cyano-3,4,6-trimethylphenyl)-3-{[(3,4-dimethyl-5-isoxazolyl)amino]sulfonyl}-2-thiophenecarboxamide] | 18.6 |  |
